Experimental data from patent publication US9023865B2, “Compounds that are ERK inhibitors” (Merck Sharp & Dohme Corp., priority 2011, dated 2015).
Like-named read-outs stand apart in the source and are kept apart here.

Assays:
[1] = target: Active Mouse ERK2 (mERK2) (Mus musculus (Mouse), UniProt P63085); test: Active Mouse ERK2 (mERK2) Activity Assay (IMAP-FP); type: biochemical
Experimental: Active Mouse ERK2 (mERK2) Activity Assay:
Activated ERK2 activity was determined in an IMAP-FP assay (Molecular Devices). […] Phosphorylation reactions were allowed to proceed for 45 minutes and were immediately quenched by the addition of 60 μL IMAP detection beads (1:1000 dilutions) in IMAP binding buffer (Molecular Devices) with 24 mM NaCl. Plates were read on EnVision reader after 60 minutes binding equilibration using Fluorescence Polarization protocol (Perkin Elmer).

[2] = target: Active Human ERK2 (hERK2) (Homo sapiens (Human), UniProt P28482); test: Active Human ERK2 (hERK2) Activity Assay (IMAP-FP); type: biochemical; settings: read-out: ERK 2 Human average IC50
Sequence of Active Human ERK2 (hERK2) (P28482 whole entry): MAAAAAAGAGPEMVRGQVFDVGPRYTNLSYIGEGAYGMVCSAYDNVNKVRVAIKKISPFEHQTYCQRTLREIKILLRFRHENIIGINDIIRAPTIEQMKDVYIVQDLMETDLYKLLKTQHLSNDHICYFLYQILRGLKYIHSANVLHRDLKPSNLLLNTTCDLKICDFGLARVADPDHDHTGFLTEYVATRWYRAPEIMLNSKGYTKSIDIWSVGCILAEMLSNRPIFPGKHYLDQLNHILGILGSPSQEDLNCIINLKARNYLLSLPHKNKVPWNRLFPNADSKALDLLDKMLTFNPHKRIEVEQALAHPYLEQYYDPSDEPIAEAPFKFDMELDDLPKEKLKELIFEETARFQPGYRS
Outline: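 Phosphorylation by activated human ERK2 (0.5 nM) at 30 μM ATP, peptide substrate 900 nM unlabeled with 80 nM labeled, proceeds 60 min. IMAP beads stop the reaction; after 60 min equilibration, product is measured by fluorescence polarization.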

[3] = phosphorylated active mERK2, 30 uM ATP, read-out: ERK 2 MAPK1 Mouse IC50
[4] = read-out: AERK2 IC50 (Active mouse ERK2 Activity Assay)
[5] = phosphorylated active hERK2, 30 μM ATP, average

Sequence of Active Mouse ERK2 (mERK2) (P63085 whole entry): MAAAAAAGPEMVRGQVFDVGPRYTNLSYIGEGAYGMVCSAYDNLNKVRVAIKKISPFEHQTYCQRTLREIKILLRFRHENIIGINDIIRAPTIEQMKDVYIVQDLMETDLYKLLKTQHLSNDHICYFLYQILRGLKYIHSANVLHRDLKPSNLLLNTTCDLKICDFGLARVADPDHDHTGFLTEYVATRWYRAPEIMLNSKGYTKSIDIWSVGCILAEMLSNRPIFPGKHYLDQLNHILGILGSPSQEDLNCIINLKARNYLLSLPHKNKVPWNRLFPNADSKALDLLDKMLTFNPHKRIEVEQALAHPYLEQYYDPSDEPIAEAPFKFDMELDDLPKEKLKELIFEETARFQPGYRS

Row | SMILES | IC50 [1, 3] [nM] | IC50 [1, 4] [nM] | IC50 [2, 5] [nM] | IC50 [2] [nM]
1 | Cc1cc(-c2n[nH]c3cc(NC(=O)N[C@H](C)c4ccccc4)ncc23)ccn1 [Example 6, 1-[3-(2-methylpyridin-4-yl)-1H-pyrazolo[4,3-c]pyridin-6-yl]-3-[(1R)-1-phenylethyl]urea] | 0.152 | 0.1 to 1.2 | 0.204 | –
2 | CCCc1n[nH]c2cc(NC(=O)N[C@H](C)c3ccccc3)ncc12 [Example 22, (R)-1-(1-phenylethyl)-3-(3-propyl-1H-pyrazolo[4,3-c]pyridin-6-yl)urea] | 0.919 | 0.1 to 1.2 | 1.61 | –
3 | Cc1cc(-c2n[nH]c3cc(NC(=O)N[C@H](C)c4ccc(Cl)cc4)ncc23)ccn1 [Example 19, 1-[(1R)-1-(4-chlorophenyl)ethyl]-3-[3-(2-methylpyridin-4-yl)-1H-pyrazolo[4,3-c]pyridin-6-yl]urea] | 0.296 | 0.1 to 1.2 | 0.556 | –
4 | Cc1cc(-c2n[nH]c3cc(NC(=O)NCc4ccccc4)ncc23)ccn1 [Example 9] | 0.222 | 0.1 to 1.2 | – | 0.851
5 | C[C@@H](NC(=O)Nc1cc2[nH]nc(C3CC3)c2cn1)c1ccccc1 [Example 25, 1-(3-cyclopropyl-1H-pyrazolo[4,3-c]pyridin-6-yl)-3-[(1R)-1-phenylethyl]urea] | – | 0.1 to 1.2 | 1.96 | –
6 | C[C@@H](NC(=O)Nc1cc2[nH]ncc2cn1)c1ccc(F)cc1 [Example 24, 1-[(1R)-1-(4-fluorophenyl)ethyl]-3-(1H-pyrazolo[4,3-c]pyridin-6-yl)urea] | 682 | – | 836 | –
